Molecules are shown by their SMILES. ≈ marks a conversion by molar mass, not a printed value.

Data on six molecules can be found in ChEMBL document CHEMBL3792325, “Two novel phenanthraquinones with anti-cancer activity isolated from Bletilla striata” (Bioorg Med Chem Lett, 2016).

In one test the test system is MCF7. Briefly: Antiproliferative activity against human MCF7 cells assessed as growth inhibition after 48 hrs by MTT assay. The format is functional, cell-based. Conditions: MCF7, 48 h. (In general: Formazan colour is commonly taken as a measure of viable cells.)
The subject of the next test is HT-29. As to the kind of experiment: Antiproliferative activity against human HT-29 cells assessed as growth inhibition after 48 hrs by MTT assay. It is filed as functional, cell-based. Particulars: HT-29, 48 h.
A further test deals with HUVEC. Briefly: Antiproliferative activity against human HUVEC cells assessed as growth inhibition after 48 hrs by MTT assay. The format is cell-based.
Test [1] has as its system A549. Briefly: Antiproliferative activity against human A549 cells assessed as growth inhibition after 48 hrs by MTT assay. Conditions: A549, 48 h. It is filed as functional, cell-based.
Test [2] has as its system A549. As to the kind of experiment: Effect on cell cycle distribution in human A549 cells assessed as accumulation at G1 phase at 20 ug/ml after 24 hrs by propidium iodide staining based flow cytometry method (reference value: 53.24%). It is filed as functional.
Test [3] deals with A549. Briefly: Effect on cell cycle distribution in human A549 cells assessed as accumulation at G2 phase at 20 ug/ml after 24 hrs by propidium iodide staining based flow cytometry method (reference value: 8%). It is filed as functional.
For test [4], the system named is A549. Briefly: Effect on cell cycle distribution in human A549 cells assessed as accumulation at S phase at 20 ug/ml after 24 hrs by propidium iodide staining based flow cytometry method (reference value: 38.76%). The format is functional. (Flow cytometry measures light scatter and fluorescence of single cells or particles in a stream.)
In test [5] the test system is A549. As to the kind of experiment: Effect on cell cycle distribution in human A549 cells assessed as accumulation at […] phase at 20 ug/ml after 24 hrs by propidium iodide staining based flow cytometry method (reference value: 1.96%). It is filed as functional.
Test [6] deals with A549. As to the kind of experiment: Induction of ROS generation in human A549 cells at 20 ug/ml after 24 hrs by FACS-flow cytometry method (reference value: 20.51). The format is functional.
Test [7] concerns A549. As to the kind of experiment: Induction of ROS generation in human A549 cells assessed as fold change at 20 ug/ml after 24 hrs by FACS-flow cytometry method relative to control. The format is functional.

For the molecule `COC1=C(c2c(O)ccc3c2ccc2cc(OC)c(O)c(OC)c23)c2ccc3cc(O)ccc3c2C(=O)C1=O`, the IC50 (usually the concentration at which inhibition is half-maximal) with MCF7 was found to be 12.6 µg/mL (≈ 24.2 µM); with HT-29, 22.7 µg/mL (≈ 43.4 µM); in the test on HUVEC, 33.5 µg/mL (≈ 64.1 µM); in the test with A549 [1] it was 22.6 µg/mL (≈ 43.3 µM). Besides, the Activity is 69.4% with A549 [2], 8% in the test with A549 [3], 22.6% with A549 [4] and 1.95% in the test on A549 [5]. The molecule also returned a Flu intensity in the test with A549 [6] of 256.68. Moreover, the “fold change (FC)” value with A549 [7] came out at 10.

In the case of `COc1cc(C(=O)O)ccc1O` [VANILLIC ACID], the IC50 with MCF7, in the test with HT-29, in the test on HUVEC and in the test on A549 [1] was over 100 µg/mL each time.

On to `COc1cc(O)c2c(c1)C(=O)c1cc(C)cc(O)c1C2=O` [PHYSCION], for which the IC50 in the test on MCF7, with HT-29, with HUVEC and in the test with A549 [1] was over 100 µg/mL in each case.

Regarding `COC1=Cc2ccc3cc(O)ccc3c2C(=O)C1=O`, the IC50 with MCF7 was found to be 18.5 µg/mL (≈ 72.7 µM); with HT-29 it was 25 µg/mL (≈ 98.4 µM); in the test with HUVEC it was 48.3 µg/mL (≈ 190 µM); with A549 [1], 19.7 µg/mL (≈ 77.6 µM). In addition, the Activity in the test with A549 [2] came out at 63.22%; with A549 [3], 6.47%; with A549 [4], 30.31%; with A549 [5] it was 2%. Besides, in the test with A549 [6], the Flu intensity is recorded as 136. Moreover, the “fold change (FC)” value in the test with A549 [7] amounted to 6.

Turning to `Cc1ccc2c(c1)C(=O)c1ccccc1C2=O` [TECTOQUINONE], the half-maximal inhibitory concentration (IC50) with MCF7, in the test with HT-29, in the test with HUVEC and with A549 [1] was over 100 µg/mL each time.

With `COc1cc2ccc3c(OC)c(O)ccc3c2c(OC)c1O`, the IC50 in the test with MCF7, in the test with HT-29, in the test with HUVEC and in the test with A549 [1] was over 100 µg/mL throughout.
